Test [1] relates to rGG-(CAG)6-CC (RNA, repeat) GGCAGCAGCAGCAGCAGCAGCC
As to the kind of experiment: fluorescence titration (turn-on, 463 nm, λex 300 nm). To be noted: 300 mM NaCl; 20 mM MOPS pH 7.0; 10 µM DB-TPE; apparent; 1:1 model.

Test [2] relates to complementary (CAG)3/(CUG)3 RNA duplex (rGG-(CAG)3-CC and rGG-(CUG)3-CC) (RNA, duplex) GGCAGCAGCAGCC/GGCUGCUGCUGCC
Kind of test: fluorescence turn-on (λex 300 nm). To be noted: 300 mM NaCl; 20 mM MOPS pH 7.0; 10 µM DB-TPE, 1 eq. duplex; much weaker fluorescence, likely non-specific electrostatic.

Turning to `CN(C)CCCNC(=N)c1ccc(C(=N)NCCCN(C)Cc2cn(Cc3ccc(C(=C(c4ccccc4)c4ccccc4)c4ccccc4)cc3)nn2)cc1`, the Kd in test [1] worked out at 2000 nM. The binding result in test [2] is recorded as “weak”.
